Experimental data from patent US11034672B1, “Tyrosine kinase inhibitor compositions, methods of making and methods of use” (Black Diamond Therapeutics, Inc., priority 2018, dated 2021).

Legend:
Type in all cases: cell-based
EGFR V3 [1] = target: T1, EGFR V3 (Homo sapiens, UniProt P00533, DELINS30-297G); assay: BaF3 cell proliferation assay, EGFR V3 (Table A); conditions: potency code, 3 days, CellTiterGlo, read-out: EGFR V3 (Activity for Inhibiting EGFR)
T1 construct: expressed in transfected cells; host or cells: BaF3 (murine pro-B), retroviral pMXs-IRES-Blasticidin
T1 sequence (P00533 with tags, fused parts or gaps DELINS30-297G): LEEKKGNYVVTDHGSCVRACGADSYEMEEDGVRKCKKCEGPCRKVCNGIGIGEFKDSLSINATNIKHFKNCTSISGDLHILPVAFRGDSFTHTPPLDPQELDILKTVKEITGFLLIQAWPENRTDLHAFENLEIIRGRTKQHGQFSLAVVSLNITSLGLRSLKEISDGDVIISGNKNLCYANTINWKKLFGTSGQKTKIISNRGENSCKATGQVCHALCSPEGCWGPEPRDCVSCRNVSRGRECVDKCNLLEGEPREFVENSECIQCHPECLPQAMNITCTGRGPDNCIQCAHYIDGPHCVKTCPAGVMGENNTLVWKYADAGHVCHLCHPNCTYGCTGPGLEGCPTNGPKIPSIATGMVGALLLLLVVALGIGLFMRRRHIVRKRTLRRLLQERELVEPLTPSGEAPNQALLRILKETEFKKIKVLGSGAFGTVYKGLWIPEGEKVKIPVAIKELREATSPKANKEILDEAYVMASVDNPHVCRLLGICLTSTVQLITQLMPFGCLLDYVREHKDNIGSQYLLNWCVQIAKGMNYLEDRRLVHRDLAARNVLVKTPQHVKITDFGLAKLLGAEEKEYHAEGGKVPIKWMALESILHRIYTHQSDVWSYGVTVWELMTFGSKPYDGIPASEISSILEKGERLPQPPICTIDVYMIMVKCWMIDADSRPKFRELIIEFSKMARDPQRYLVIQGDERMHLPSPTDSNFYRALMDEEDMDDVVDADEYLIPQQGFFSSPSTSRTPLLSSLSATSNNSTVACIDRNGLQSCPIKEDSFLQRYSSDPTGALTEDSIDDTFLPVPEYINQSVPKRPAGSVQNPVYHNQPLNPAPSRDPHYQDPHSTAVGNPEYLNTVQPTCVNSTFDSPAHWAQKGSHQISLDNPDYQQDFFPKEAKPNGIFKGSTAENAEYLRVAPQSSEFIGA
In short: (§1)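 EC50 values come from proliferation of IL-3-independent BaF3 lines. These lines were made by two spin infections with retrovirus encoding each mutant, plus polybrene (8 μg/ml). They then underwent one week of 10 μg/ml blasticidin selection and were removed from IL-3.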

EGFR WT [2] = target: T2, EGFR WT (Homo sapiens, UniProt P00533); assay: Activity for inhibiting EGFR (Table A), EGFR WT; conditions: read-out: EGFR WT, potency code (IC50)
T2 sequence (P00533 25-1210 N540K): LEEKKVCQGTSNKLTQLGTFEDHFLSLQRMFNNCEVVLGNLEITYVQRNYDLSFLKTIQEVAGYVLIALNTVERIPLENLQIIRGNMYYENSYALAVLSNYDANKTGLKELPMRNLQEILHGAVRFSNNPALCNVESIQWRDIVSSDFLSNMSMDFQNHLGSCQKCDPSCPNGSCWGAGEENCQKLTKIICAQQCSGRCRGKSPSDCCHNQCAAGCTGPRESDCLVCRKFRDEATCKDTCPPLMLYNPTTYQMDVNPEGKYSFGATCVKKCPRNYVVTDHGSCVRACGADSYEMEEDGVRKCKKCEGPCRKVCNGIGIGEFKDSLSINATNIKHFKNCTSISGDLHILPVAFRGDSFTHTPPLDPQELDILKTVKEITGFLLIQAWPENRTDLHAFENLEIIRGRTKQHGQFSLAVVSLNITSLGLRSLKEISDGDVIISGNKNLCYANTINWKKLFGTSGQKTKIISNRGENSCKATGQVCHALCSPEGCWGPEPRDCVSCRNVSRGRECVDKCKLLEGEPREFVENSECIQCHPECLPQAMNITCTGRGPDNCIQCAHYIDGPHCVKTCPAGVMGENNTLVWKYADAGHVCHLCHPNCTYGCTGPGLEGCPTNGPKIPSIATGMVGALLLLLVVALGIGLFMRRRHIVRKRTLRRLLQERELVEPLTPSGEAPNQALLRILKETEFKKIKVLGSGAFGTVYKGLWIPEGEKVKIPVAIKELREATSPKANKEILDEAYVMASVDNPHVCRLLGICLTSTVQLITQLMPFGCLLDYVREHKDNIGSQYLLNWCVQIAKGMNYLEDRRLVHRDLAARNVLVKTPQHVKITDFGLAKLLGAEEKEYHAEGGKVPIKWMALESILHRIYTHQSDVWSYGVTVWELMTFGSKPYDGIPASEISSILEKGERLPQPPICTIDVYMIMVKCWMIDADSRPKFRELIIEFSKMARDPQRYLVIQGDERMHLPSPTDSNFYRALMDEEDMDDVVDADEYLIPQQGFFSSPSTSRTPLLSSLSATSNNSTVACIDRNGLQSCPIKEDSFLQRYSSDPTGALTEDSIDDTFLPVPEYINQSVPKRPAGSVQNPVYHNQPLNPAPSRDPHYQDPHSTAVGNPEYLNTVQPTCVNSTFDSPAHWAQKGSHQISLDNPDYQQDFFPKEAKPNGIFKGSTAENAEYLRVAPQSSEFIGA

EGFR V3 [3] = target: T1, EGFR V3; assay: Activity for inhibiting EGFR (Table A), EGFR V3 (EGFR-Viii); conditions: read-out: EGFR V3, potency code (IC50)
HER2 YVMA [4] = target: T3, HER2 YVMA (Homo sapiens, UniProt P04626, INS775YVMA); assay: Activity for inhibiting HER2 (Table B), HER2 YVMA; conditions: read-out: HER2 YVMA, potency code (IC50)
T3 construct: expressed in transfected cells; host or cells: BaF3 (murine pro-B)
T3 sequence (P04626 with tags, fused parts or gaps INS775YVMA): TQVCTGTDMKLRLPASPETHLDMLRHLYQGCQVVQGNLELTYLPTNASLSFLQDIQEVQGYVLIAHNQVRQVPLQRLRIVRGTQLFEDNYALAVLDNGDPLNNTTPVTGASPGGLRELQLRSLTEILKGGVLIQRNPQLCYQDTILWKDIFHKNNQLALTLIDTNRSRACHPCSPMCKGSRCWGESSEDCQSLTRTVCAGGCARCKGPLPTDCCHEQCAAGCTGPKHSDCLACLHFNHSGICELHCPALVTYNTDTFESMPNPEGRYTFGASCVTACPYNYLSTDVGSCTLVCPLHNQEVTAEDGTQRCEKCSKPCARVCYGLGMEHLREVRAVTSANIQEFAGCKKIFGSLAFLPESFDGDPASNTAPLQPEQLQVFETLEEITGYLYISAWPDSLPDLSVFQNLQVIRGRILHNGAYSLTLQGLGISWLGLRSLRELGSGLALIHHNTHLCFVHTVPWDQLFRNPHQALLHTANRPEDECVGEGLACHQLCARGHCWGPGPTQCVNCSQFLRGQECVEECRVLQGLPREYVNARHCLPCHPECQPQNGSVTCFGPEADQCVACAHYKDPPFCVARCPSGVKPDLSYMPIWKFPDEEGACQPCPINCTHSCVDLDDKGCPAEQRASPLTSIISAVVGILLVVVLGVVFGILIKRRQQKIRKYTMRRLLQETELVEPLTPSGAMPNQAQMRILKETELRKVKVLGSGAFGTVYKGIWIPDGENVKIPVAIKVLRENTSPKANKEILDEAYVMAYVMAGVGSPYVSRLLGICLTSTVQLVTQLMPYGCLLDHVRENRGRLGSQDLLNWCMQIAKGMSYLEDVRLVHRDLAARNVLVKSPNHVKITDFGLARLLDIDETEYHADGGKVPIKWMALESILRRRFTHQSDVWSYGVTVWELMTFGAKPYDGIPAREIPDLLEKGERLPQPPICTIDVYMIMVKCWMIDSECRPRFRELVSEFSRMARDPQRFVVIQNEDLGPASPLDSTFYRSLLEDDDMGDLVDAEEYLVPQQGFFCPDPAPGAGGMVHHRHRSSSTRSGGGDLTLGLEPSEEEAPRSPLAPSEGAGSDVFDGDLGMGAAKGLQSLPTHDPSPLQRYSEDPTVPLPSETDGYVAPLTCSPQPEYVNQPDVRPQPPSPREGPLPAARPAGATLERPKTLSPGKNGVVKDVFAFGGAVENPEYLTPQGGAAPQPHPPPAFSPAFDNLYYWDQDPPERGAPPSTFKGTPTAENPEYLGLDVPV
Description: (§2) EC50 values were determined with the same application.

EGFR WT [5] = target: T2, EGFR WT; assay: BaF3 cell proliferation assay, EGFR WT (Table A); conditions: potency code, 3 days, CellTiterGlo, read-out: EGFR WT (Activity for Inhibiting EGFR)
In short: as §1

HER2 S310F [6] = target: T4, HER2 S310F (Homo sapiens, UniProt P04626, S310F); assay: Activity for inhibiting HER2 (Table B), HER2 S310F; conditions: read-out: HER2 S310F, potency code (IC50)
T4 construct: expressed in transfected cells; host or cells: BaF3 (murine pro-B)
T4 sequence (P04626 23-1255 S310F): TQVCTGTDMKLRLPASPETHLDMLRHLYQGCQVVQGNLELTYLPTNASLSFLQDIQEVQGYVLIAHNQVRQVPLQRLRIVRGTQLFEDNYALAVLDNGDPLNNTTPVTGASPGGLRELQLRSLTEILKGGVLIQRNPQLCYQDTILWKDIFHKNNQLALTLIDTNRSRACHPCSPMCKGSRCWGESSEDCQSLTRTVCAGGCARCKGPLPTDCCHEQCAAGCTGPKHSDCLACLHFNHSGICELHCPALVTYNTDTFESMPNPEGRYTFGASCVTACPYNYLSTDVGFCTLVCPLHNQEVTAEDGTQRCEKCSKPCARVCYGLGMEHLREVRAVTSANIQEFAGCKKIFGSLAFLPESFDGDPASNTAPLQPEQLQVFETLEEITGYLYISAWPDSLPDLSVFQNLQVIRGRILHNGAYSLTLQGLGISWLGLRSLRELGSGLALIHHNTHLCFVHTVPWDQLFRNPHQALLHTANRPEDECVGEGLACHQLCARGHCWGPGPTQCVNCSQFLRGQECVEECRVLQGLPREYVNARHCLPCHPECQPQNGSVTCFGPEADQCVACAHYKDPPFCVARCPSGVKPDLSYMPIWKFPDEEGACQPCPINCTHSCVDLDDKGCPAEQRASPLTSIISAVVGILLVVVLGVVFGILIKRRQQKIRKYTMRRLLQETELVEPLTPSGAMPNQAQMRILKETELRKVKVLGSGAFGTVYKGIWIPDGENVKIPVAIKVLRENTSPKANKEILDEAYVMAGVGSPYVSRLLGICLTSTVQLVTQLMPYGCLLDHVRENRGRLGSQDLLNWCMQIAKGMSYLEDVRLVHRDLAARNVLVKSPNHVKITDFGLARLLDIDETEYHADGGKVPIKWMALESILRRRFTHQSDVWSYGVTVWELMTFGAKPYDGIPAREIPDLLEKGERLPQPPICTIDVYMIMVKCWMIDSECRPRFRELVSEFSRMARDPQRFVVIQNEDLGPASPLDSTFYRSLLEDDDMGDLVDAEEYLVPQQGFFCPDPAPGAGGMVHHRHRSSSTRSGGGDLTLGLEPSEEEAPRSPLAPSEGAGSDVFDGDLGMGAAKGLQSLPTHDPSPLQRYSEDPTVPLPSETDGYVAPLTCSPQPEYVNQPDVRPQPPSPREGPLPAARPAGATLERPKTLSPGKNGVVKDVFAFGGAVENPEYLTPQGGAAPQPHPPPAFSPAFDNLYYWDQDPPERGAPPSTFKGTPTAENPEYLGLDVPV
Description: as §2

HER2 S310F [7] = target: T4, HER2 S310F; assay: BaF3 cell proliferation assay, HER2 S310F (Table B); conditions: potency code, 3 days, CellTiterGlo, read-out: HER2 S310F (Activity for Inhibiting HER2)
HER2 YVMA [8] = target: T3, HER2 YVMA; assay: BaF3 cell proliferation assay, HER2 YVMA (Table B); conditions: potency code, 3 days, CellTiterGlo, read-out: HER2 YVMA (Activity for Inhibiting HER2)

IC50 (EGFR V3 [1])	IC50 (EGFR WT [2])	IC50 (EGFR V3 [3])	IC50 (HER2 YVMA [4])	IC50 (EGFR WT [5])	IC50 (HER2 S310F [6])	IC50 (HER2 S310F [7])	IC50 (HER2 YVMA [8])	Structure (SMILES)
0.05 to 0.1 µM	0.2 to 0.3 µM	0.05 to 0.1 µM	0.1 to 0.2 µM	0.2 to 0.3 µM	0.03 to 0.05 µM	0.03 to 0.05 µM	0.1 to 0.2 µM	C=CC(=O)Nc1cc2c(Nc3ccc(OCc4cccc(F)c4)c(Cl)c3)ncnc2cc1OCCN1CC(OC)C1 [compound 143]
0.1 to 0.2 µM	0.1 to 0.2 µM	0.1 to 0.2 µM	0.1 to 0.2 µM	0.1 to 0.2 µM	0.03 to 0.05 µM	0.03 to 0.05 µM	0.1 to 0.2 µM	C=CC(=O)Nc1cc2c(Nc3ccc(OCc4cccc(F)c4)c(Cl)c3)ncnc2cc1OCCCN1CC(OC)C1 [compound 144]
0.05 to 0.1 µM	0.1 to 0.2 µM	0.05 to 0.1 µM	0.2 to 0.3 µM	0.1 to 0.2 µM	0.03 to 0.05 µM	0.03 to 0.05 µM	0.2 to 0.3 µM	C=CC(=O)Nc1cc2c(Nc3cc(Cl)c(OCc4cccc(F)c4)cc3F)ncnc2cc1OCCN1CCN(C)CC1 [compound 145]
0.05 to 0.1 µM	0.05 to 0.1 µM	0.05 to 0.1 µM	0.05 to 0.1 µM	0.05 to 0.1 µM	0.02 to 0.03 µM	0.02 to 0.03 µM	0.05 to 0.1 µM	CC#CC(=O)Nc1cc2c(Nc3cc(Cl)c(OCc4cccc(F)c4)cc3F)ncnc2cc1OCCN1CCN(C)CC1 [compound 146, N-(4-((5-chloro-2-fluoro-4-((3-fluorobenzyl)oxy)phenyl)amino)-7-(2-(4-methylpiperazin-1-yl)ethoxy)quinazolin-6-yl)but-2-ynamide]
0.05 to 0.1 µM	0.5 to 1 µM	0.05 to 0.1 µM	0.2 to 0.3 µM	0.5 to 1 µM	0.05 to 0.1 µM	0.05 to 0.1 µM	0.2 to 0.3 µM	C=CC(=O)Nc1cc2c(Nc3cc(Cl)c(OCc4cccc(F)c4)cc3F)ncnc2cc1OCCN1CC2CCC(C1)O2 [compound 147]
0.1 to 0.2 µM	0.2 to 0.3 µM	0.1 to 0.2 µM	0.05 to 0.1 µM	0.2 to 0.3 µM	0.02 to 0.03 µM	0.02 to 0.03 µM	0.05 to 0.1 µM	CC#CC(=O)Nc1cc2c(Nc3cc(Cl)c(OCc4cccc(F)c4)cc3F)ncnc2cc1OCCN1CC2CCC(C1)O2 [compound 148, N-(7-(2-(8-oxa-3-azabicyclo[3.2.1]octan-3-yl)ethoxy)-4-((5-chloro-2-fluoro-4-((3-fluorobenzyl)oxy)phenyl)amino)quinazolin-6-yl)but-2-ynamide]
0.05 to 0.1 µM	0.1 to 0.2 µM	0.05 to 0.1 µM	0.03 to 0.05 µM	0.1 to 0.2 µM	0.01 to 0.02 µM	0.01 to 0.02 µM	0.03 to 0.05 µM	CC#CC(=O)Nc1cc2c(Nc3cc(Cl)c(OCc4cccc(F)c4)cc3F)ncnc2cc1OCCN1CCOCC1 [compound 149, N-(4-((5-chloro-2-fluoro-4-((3-fluorobenzyl)oxy)phenyl)amino)-7-(2-morpholinoethoxy)quinazolin-6-yl)but-2-ynamide]
0.05 to 0.1 µM	0.2 to 0.3 µM	0.05 to 0.1 µM	0.03 to 0.05 µM	0.2 to 0.3 µM	0.01 to 0.02 µM	0.01 to 0.02 µM	0.03 to 0.05 µM	CC#CC(=O)Nc1cc2c(Nc3cc(Cl)c(OCc4cccc(F)c4)cc3F)ncnc2cc1OCCCN1CCOCC1 [compound 150, N-(4-((5-chloro-2-fluoro-4-((3-fluorobenzyl)oxy)phenyl)amino)-7-(3-morpholinopropoxy)quinazolin-6-yl)but-2-ynamide]
0.05 to 0.1 µM	0.1 to 0.2 µM	0.05 to 0.1 µM	0.1 to 0.2 µM	0.1 to 0.2 µM	0.01 to 0.02 µM	0.01 to 0.02 µM	0.1 to 0.2 µM	CC#CC(=O)Nc1cc2c(Nc3cc(Cl)c(OCc4cccc(F)c4)cc3F)ncnc2cc1O[C@@H]1CCN(C)C1 [compound 151, (R)-N-(4-((5-chloro-2-fluoro-4-((3-fluorobenzyl)oxy)phenyl)amino)-7-((1-methylpyrrolidin-3-yl)oxy)quinazolin-6-yl)but-2-ynamide]
0.03 to 0.05 µM	0.1 to 0.2 µM	0.03 to 0.05 µM	0.05 to 0.1 µM	0.1 to 0.2 µM	0.005 to 0.01 µM	0.005 to 0.01 µM	0.05 to 0.1 µM	CC#CC(=O)Nc1cc2c(Nc3cc(Cl)c(OCc4cccc(F)c4)cc3F)ncnc2cc1OCCN1CC(OC)C1 [compound 152, N-(4-((5-chloro-2-fluoro-4-((3-fluorobenzyl)oxy)phenyl)amino)-7-(2-(3-methoxyazetidin-1-yl)ethoxy)quinazolin-6-yl)but-2-ynamide]
0.03 to 0.05 µM	0.5 to 1 µM	0.03 to 0.05 µM	0.05 to 0.1 µM	0.5 to 1 µM	0.01 to 0.02 µM	0.01 to 0.02 µM	0.05 to 0.1 µM	C=CC(=O)Nc1cc2c(Nc3ccc(OCc4cccc(F)n4)c(Cl)c3)ncnc2cc1OCCCN1CCOCC1 [compound 153]
0.03 to 0.05 µM	0.5 to 1 µM	0.03 to 0.05 µM	0.1 to 0.2 µM	0.5 to 1 µM	0.03 to 0.05 µM	0.03 to 0.05 µM	0.1 to 0.2 µM	C=CC(=O)Nc1cc2c(Nc3ccc(OCc4cccc(F)n4)c(Cl)c3)ncnc2cc1OCCN1CCOCC1 [compound 154]
0.03 to 0.05 µM	0.3 to 0.5 µM	0.03 to 0.05 µM	0.03 to 0.05 µM	0.3 to 0.5 µM	0.01 to 0.02 µM	0.01 to 0.02 µM	0.03 to 0.05 µM	C=CC(=O)Nc1cc2c(Nc3ccc(OCc4cccc(F)n4)c(Cl)c3)ncnc2cc1OCCCN1CC(OC)C1 [compound 155]
0.05 to 0.1 µM	> 1 µM	0.05 to 0.1 µM	0.2 to 0.3 µM	> 1 µM	0.03 to 0.05 µM	0.03 to 0.05 µM	0.2 to 0.3 µM	C=CC(=O)Nc1cc2c(Nc3ccc(OCc4cccc(F)n4)c(Cl)c3)ncnc2cc1OCCN1CC2CCC(C1)O2 [compound 156]
0.03 to 0.05 µM	0.5 to 1 µM	0.03 to 0.05 µM	0.3 to 0.5 µM	0.5 to 1 µM	0.03 to 0.05 µM	0.03 to 0.05 µM	0.3 to 0.5 µM	C=CC(=O)Nc1cc2c(Nc3ccc(OCc4cccc(F)n4)c(Cl)c3)ncnc2cc1OCCN1CC(OC)C1 [compound 157]
0.03 to 0.05 µM	0.1 to 0.2 µM	0.03 to 0.05 µM	0.1 to 0.2 µM	0.1 to 0.2 µM	0.03 to 0.05 µM	0.03 to 0.05 µM	0.1 to 0.2 µM	C=CC(=O)Nc1cc2c(Nc3ccc(OCc4cccc(F)n4)c(Cl)c3)ncnc2cc1OCCN1CCN(C)CC1 [compound 158]
0.1 to 0.2 µM	0.3 to 0.5 µM	0.1 to 0.2 µM	0.3 to 0.5 µM	0.3 to 0.5 µM	0.05 to 0.1 µM	0.05 to 0.1 µM	0.3 to 0.5 µM	C=CC(=O)Nc1cc2c(Nc3ccc(OCc4cccc(F)c4)c(Cl)c3)ncnc2cc1OCCCN1C[C@@H]2C[C@H]1CO2 [compound 159]
0.1 to 0.2 µM	0.3 to 0.5 µM	0.1 to 0.2 µM	0.3 to 0.5 µM	0.3 to 0.5 µM	0.1 to 0.2 µM	0.1 to 0.2 µM	0.3 to 0.5 µM	C=CC(=O)Nc1cc2c(Nc3ccc(OCc4cccc(F)c4)c(Cl)c3)ncnc2cc1OCCCN1C[C@H]2C[C@@H]1CO2 [compound 160]
0.03 to 0.05 µM	0.2 to 0.3 µM	0.03 to 0.05 µM	0.1 to 0.2 µM	0.2 to 0.3 µM	0.03 to 0.05 µM	0.03 to 0.05 µM	0.1 to 0.2 µM	C=CC(=O)Nc1cc2c(Nc3ccc(OCc4cccc(F)n4)c(Cl)c3)ncnc2cc1OCCCN1C[C@@H]2C[C@H]1CO2 [compound 161]
0.03 to 0.05 µM	0.3 to 0.5 µM	0.03 to 0.05 µM	0.1 to 0.2 µM	0.3 to 0.5 µM	0.03 to 0.05 µM	0.03 to 0.05 µM	0.1 to 0.2 µM	C=CC(=O)Nc1cc2c(Nc3ccc(OCc4cccc(F)n4)c(Cl)c3)ncnc2cc1OCCCN1C[C@H]2C[C@@H]1CO2 [compound 162]
0.05 to 0.1 µM	> 1 µM	0.05 to 0.1 µM	0.1 to 0.2 µM	> 1 µM	0.03 to 0.05 µM	0.03 to 0.05 µM	0.1 to 0.2 µM	C=CC(=O)Nc1cc2c(Nc3ccc(OCc4ccncn4)c(Cl)c3)ncnc2cc1OCCCN1CCOCC1 [compound 163]
0.05 to 0.1 µM	0.3 to 0.5 µM	0.05 to 0.1 µM	0.1 to 0.2 µM	0.3 to 0.5 µM	0.03 to 0.05 µM	0.03 to 0.05 µM	0.1 to 0.2 µM	CC#CC(=O)Nc1cc2c(Nc3ccc(OCc4ccncn4)c(Cl)c3)ncnc2cc1OCCCN1CCOCC1 [compound 164, N-(4-((3-chloro-4-(pyrimidin-4-ylmethoxy)phenyl)amino)-7-(3-morpholinopropoxy)quinazolin-6-yl)but-2-ynamide]
